Test results: patent publication US20230295164A1, “COMPOUNDS HAVING ANTIBACTERIAL ACTIVITY” (The Trustees of Princeton University, priority 2020, published 2023)
≈ marks a conversion by molar mass, not a printed value.

Experiments:
Assay in all cases: MIC testing, broth microdilution in CAMHB
Type in all cases: cell-based
[1] = tested on: Enterococcus faecalis, ATCC 51575; settings: 18-20 hr, lowest concentration that completely inhibits visible growth; for Compound MICs, Enterococcus faecalis, ATCC 51575: 37° C.; for MIC: Enterococcus faecalis, ATCC51575, 37° C., read-out: Compound MICs, Enterococcus faecalis, ATCC 51575
Method: (§1) Compounds 1-71 were subsequently tested to determine MICs of the compounds relative to the following five species/strains of bacteria: Staphylococcus aureus, NRS384; Enterococcus faecalis, ATCC 51575; Salmonella typhimurium, CMCC 50115; Escherichia coli, ATCC BAA-198; and Acinetobacter baumannii, ATCC 17978. MIC testing of compounds was conducted according to the following protocol.
(§2) For each strain to be tested, made fresh streaks onto CAMHA from −80° C. glycerol stocks.
(§3) • CAMHB: Dissolved 22 g of the powder per 1 L of purified water. Mixed well. Autoclaved at 121° C. for 10 minutes. Stored at room temperature (RT) for no more than 1 week. • Saline: Dissolved 9 g of the powder per 1 L of purified water. Mixed well. Autoclaved at 121° C. for 30 minutes. Stored at room temperature (RT) for no more than 1 week.
(§4) Prepared the stock solutions of the tested compounds.
(§5) For compounds: • a) Dispensed 20 ul compound to the wells in column 1, and 20 ul DMSO to the wells in column 2 to 12; • b) Diluted the compounds by transferring 10 ul compounds from column 1 to 20 ul DMSO in column 2; mix with pipette. • c) Repeated until column 11 to get 3×serial dilutions. Column 12 was the DMSO control.
(§6) A multichannel pipette was used to deliver 1 μl of the diluted compound into each well of the corresponding daughter plate.
(§7) Scraped 4-8 single colonies from an agar plate into 5 ml saline in a 14 ml Falcon conical tube. Vortexed the tube to suspend the bacteria. Adjusted the turbidity to ˜0.2 (corresponding to 0.5 McFarland) with an Ultrospec 10 Cell density meter.
(§8) The strain suspension was diluted 200-fold in CAMHB medium and dispense into a sterile reservoir. A multichannel pipette was then used to deliver 99 μl of the diluted inocula into each well of the corresponding daughter plate.
(§9) Incubate the daughter plates at 37° C., 85% humidity for 18-20 hr.
(§10) A magnifying mirror device was used for ease of scoring the presence or absence of growth in the wells. 96-well micro-plates were photographed.

[2] = tested on: Salmonella typhimurium, CMCC 50115; settings: 37° C., 18-20 hr, lowest concentration that completely inhibits visible growth; for MIC: Salmonella enterica, read-out: Compound MICs, Salmonella typhimurium, CMCC 50115
Method: as §1, §2, §3, §4, §5, §6, §7, §8, §9, §10

[3] = tested on: Acinetobacter baumannii, ATCC 17978; settings: 18-20 hr, lowest concentration that completely inhibits visible growth; for Compound MICs, Acinetobacter baumannii, ATCC 17978: 37° C.; for MIC: Acinetobacter baumannii, ATCC17978, 37° C., read-out: Compound MICs, Acinetobacter baumannii, ATCC 17978
Method: as §1, §2, §3, §4, §5, §6, §7, §8, §9, §10

[4] = tested on: Staphylococcus aureus, NRS384; settings: 18-20 hr, lowest concentration that completely inhibits visible growth; for Compound MICs, Staphylococcus aureus, NRS384: 37° C.; for MIC: Staphylococcus aureus, NRS384, 37° C., read-out: Compound MICs, Staphylococcus aureus, NRS384
Method: as §1, §2, §3, §4, §5, §6, §7, §8, §9, §10

[5] = tested on: Escherichia coli, ATCC BAA-198; settings: 18-20 hr, lowest concentration that completely inhibits visible growth; for Compound MICs, Escherichia coli, ATCC BAA-198: 37° C.; for MIC: Escherichia coli, ATCCBAA198, 37° C., read-out: Compound MICs, Escherichia coli, ATCC BAA-198
Method: as §1, §2, §3, §4, §5, §6, §7, §8, §9, §10

Structure (SMILES) | Compound MICs, Enterococcus faecalis, ATCC 51575 [1] [µg/mL] | Compound MICs, Salmonella typhimurium, CMCC 50115 [2] [µg/mL] | Compound MICs, Acinetobacter baumannii, ATCC 17978 [3] [µg/mL] | Compound MICs, Staphylococcus aureus, NRS384 [4] [µg/mL] | Compound MICs, Escherichia coli, ATCC BAA-198 [5] [µg/mL] | MIC [1] [µg/mL] | MIC [2] [µg/mL] | MIC [3] [µg/mL] | MIC [4] [µg/mL] | MIC [5] [µg/mL]
CC#Cc1ccc(Cn2ccc3c4c(N)nc(N)nc4ccc32)cc1 [Compound 25] | 0.09 | 0.79 | 21.3 | 0.26 | 7.11 | – | – | – | – | –
CC(C)c1ccc(Cn2ccc3c4c(N)nc(N)nc4ccc32)cc1 [Compound 8] | – | – | – | – | – | 0.03 (≈ 0.0905 µM) | 0.26 (≈ 0.784 µM) | 0.79 (≈ 2.38 µM) | 0.088 (≈ 0.266 µM) | 2.37 (≈ 7.15 µM)
Cc1cc2c(ccn2Cc2ccc(F)cc2)c2c(N)nc(N)nc12 [Compound 55] | 0.03 | 0.26 | 2.37 | 0.26 | 7.11 | – | – | – | – | –
Nc1nc(N)c2c(ccc3c2ccn3Cc2ccnc(F)c2)n1 [Compound 56] | 0.01 | 0.03 | 2.37 | 0.03 | 7.11 | – | – | – | – | –
Nc1nc(N)c2c(ccc3c2ccn3CC#Cc2ccccc2)n1 [Compound 3] | – | – | – | – | – | 0.03 (≈ 0.0957 µM) | 0.79 (≈ 2.52 µM) | 7.11 (≈ 22.7 µM) | 0.26 (≈ 0.83 µM) | 7.11 (≈ 22.7 µM)
Nc1nc(N)c2ccc(NCc3ccc(F)cc3)cc2n1 [Compound 64] | 21.3 | 64 | >64 | 7.11 | 64 | – | – | – | – | –
Nc1nc(N)c2c(ccc3c2ccn3Cc2ccc(C#Cc3ccccc3)cc2)n1 [Compound 23] | 0.26 | >64 | >64 | 2.37 | >64 | – | – | – | – | –
CCc1ccc(Cn2ccc3c4c(N)nc(N)nc4ccc32)cc1 [Compound 31] | 0.09 | 0.79 | 7.11 | 0.26 | 7.11 | – | – | – | – | –
CC(C)C#Cc1ccc(Cn2ccc3c4c(N)nc(N)nc4ccc32)cc1 [Compound 15] | 0.09 | 2.37 | 21.3 | 0.26 | 7.11 | – | – | – | – | –
CC(C)C#Cc1ccc(Cn2ccc3c4c(N)nc(NC5CC5)nc4ccc32)cc1 [Compound 17] | 0.79 | 7.11 | 21.3 | 2.37 | 21.3 | – | – | – | – | –
NCC#Cc1ccc(Cn2ccc3c4c(N)nc(N)nc4ccc32)cc1 [Compound 24] | 0.26 | 0.26 | 64 | 0.79 | 7.11 | – | – | – | – | –
CC(C)(C)OC(=O)NCC#Cc1ccc(Cn2ccc3c4c(N)nc(N)nc4ccc32)cc1 [Compound 16] | 0.09 | 21.3 | >64 | 0.79 | >64 | – | – | – | – | –
COc1ccc(Br)cc1Cn1ccc2c3c(N)nc(N)nc3ccc21 [Compound 70] | – | – | – | – | – | ≤ 0.001 | 0.26 (≈ 0.653 µM) | 2.37 (≈ 5.95 µM) | 0.01 (≈ 0.0251 µM) | 2.37 (≈ 5.95 µM)
C#Cc1ccc(Cn2ccc3c4c(N)nc(NC5CC5)nc4ccc32)cc1 [Compound 9] | – | – | – | – | – | 0.26 (≈ 0.736 µM) | 2.37 (≈ 6.71 µM) | 21.3 (≈ 60.3 µM) | 0.79 (≈ 2.24 µM) | 21.3 (≈ 60.3 µM)
COc1cc(Cn2ccc3c4c(N)nc(N)nc4ccc32)cc(OC)c1 [Compound 66] | 0.01 | 0.26 | 7.11 | 0.09 | 2.37 | – | – | – | – | –
Nc1nc(N)c2c(ccc3c2ccn3C/C=C/c2ccccc2)n1 [Compound 4] | – | – | – | – | – | 0.03 (≈ 0.0951 µM) | 0.79 (≈ 2.5 µM) | 7.11 (≈ 22.5 µM) | 0.03 (≈ 0.0951 µM) | 7.11 (≈ 22.5 µM)
Nc1nc(N)c2c(ccc3c2ccn3Cc2ccc(B(O)O)cc2)n1 [Compound 51] | 0.003 | 0.26 | >64 | 0.26 | 21.3 | – | – | – | – | –
Nc1nc(NC2CC2)nc2ccc3c(ccn3Cc3ccc(C#Cc4ccccc4)cc3)c12 [Compound 19] | 0.79 | 21.3 | >64 | 2.37 | >64 | – | – | – | – | –
Nc1nc(N)c2c(ccc3c2ccn3Cc2cccc(F)c2)n1 [Compound 12] | – | – | – | – | – | 0.03 (≈ 0.0976 µM) | 0.79 (≈ 2.57 µM) | 2.37 (≈ 7.71 µM) | 0.26 (≈ 0.846 µM) | 7.11 (≈ 23.1 µM)
COc1cccc(Cn2ccc3c4c(N)nc(N)nc4ccc32)n1 [Compound 67] | 0.01 | 0.26 | 0.26 | 0.09 | 2.37 | – | – | – | – | –
Nc1nc(N)c2c(n1)c(-c1ccc(F)cc1)cc1c2ccn1Cc1ccc(F)cc1 [Compound 52] | 2.37 | 21.3 | >64 | 7.11 | >64 | – | – | – | – | –
C=Cc1ccc(Cn2ccc3c4c(N)nc(N)nc4ccc32)cc1 [Compound 33] | 0.03 | 0.26 | 7.11 | 0.26 | 2.37 | – | – | – | – | –
Nc1nc(N)c2c(ccc3c2ccn3Cc2cccc(Cl)c2Cl)n1 [Compound 68] | 0.01 | 0.26 | 2.37 | 0.03 | 2.37 | – | – | – | – | –
Nc1nc(N)c2c(ccc3c2ccn3CC2CCCC2)n1 [Compound 11] | – | – | – | – | – | 0.03 (≈ 0.107 µM) | 0.79 (≈ 2.81 µM) | 7.11 (≈ 25.3 µM) | 0.088 (≈ 0.313 µM) | 21.3 (≈ 75.7 µM)
Nc1nc(N)c2c(ccc3c2ccn3Cc2ccc(-c3ccccn3)cc2)n1 [Compound 61] | 0.03 | 0.26 | 7.11 | 0.09 | 7.11 | – | – | – | – | –
Nc1nc(N)c2c(ccc3c2ccn3Cc2ccc3ccccc3c2)n1 [Compound 26] | 0.09 | 0.26 | 2.37 | 0.09 | 2.37 | – | – | – | – | –
